This passage reports EC50, CC50 and IC50 results from ChEMBL document CHEMBL3608287, “Potential Treatment for the Respiratory Syncytial Virus Infections (HRSV)” (ACS Med Chem Lett, 2015).

Molecules are shown by their SMILES. pEC50, pIC50: −log10 of the molar value. Some results are limits rather than exact numbers.

One data set deals with Human orthopneumovirus. Description: Antiviral activity against Human respiratory syncytial virus. It counts as functional, organism-based.
Data set [1] is described as follows: Cytotoxicity against human Hep2 cells. Format: cell-based, HEp-2.
Data set [2] is described as follows: Cytotoxicity against human MT4 cells. It counts as cell-based.
The nature of data set [3]: Inhibition of Human respiratory syncytial virus RNP.

Usually pEC50 stands for the EC50 on a negative log10 scale, so that one unit is a factor of ten. The low end stands for a large EC50, the high end for a small EC50. A word on the CC50: it is the concentration giving 50% cytotoxicity. With `N#C[C@]1(CO)O[C@@H](c2ccc3c(N)ncnn23)[C@H](O)[C@@H]1O`, in the data set with Human orthopneumovirus, the pEC50 was 5.14. Also, the CC50 in data set [1] is over 50 µM; in data set [2] it was over 53 µM.
Taken in the same sequence, the figures for `C#C[C@]1(CO)O[C@@H](c2ccc3c(N)ncnn23)[C@H](F)[C@@H]1O` were 5.02, over 100 µM and over 106 µM.
A word on the pIC50: it is the IC50 on a negative log10 scale, so that one unit is a factor of ten. For the compound `C#C[C@]1(COP(=O)(O)OP(=O)(O)OP(=O)(O)O)O[C@@H](c2ccc3c(N)ncnn23)[C@H](F)[C@@H]1O`, the pIC50 in data set [3] was 6.00.
The compound `CC(C)(C)C(=O)SCCOP(=O)(OCCSC(=O)C(C)(C)C)OC[C@@]1(C#N)O[C@@H](c2ccc3c(N)ncnn23)[C@H](O)[C@@H]1O` had a negative-log EC50 (pEC50) with Human orthopneumovirus of 6.00. For the same compound, the CC50 worked out at 39 µM in data set [1] and 7.3 µM in data set [2].
Taken in the same sequence, the figures for `[N-]=[N+]=N[C@]1(CO)O[C@@H](c2ccc3c(N)nc(F)nn23)[C@H](F)[C@@H]1O` were 6.24, over 100 µM and 32 µM.
Taken in the same sequence, the figures for `N#C[C@]1(CO)O[C@@H](c2cc(F)c3c(N)ncnn23)[C@H](O)[C@@H]1O` were 5.04, over 100 µM and over 93 µM.
